“Also recorded” adds a separate entry of the source. Oligonucleotides are written 5' to 3', each unit as a sugar letter and its base; * is a phosphorothioate linkage, no mark a phosphodiester; rarer units and linkages stand in square brackets, end groups in braces. Plain capitals give the bases only. m = 2'-O-methyl; r = 2'-OH (RNA); f = 2'-fluoro
Key:
pDC-depleted PBMCs = experiment: IFN-α secretion by pDC-depleted PBMCs versus PBMCs; assay type: cell-based, human; settings: Lipofectamine-mediated transfection, pDC-depleted PBMCs vs PBMCs (FIG. 8)
Description: Peripheral blood mononuclear cells (PBMCs) were obtained from buffy coats from healthy adult donors. Buffy coat samples were first diluted with an equal volume of phosphate-buffered saline (PBS). Next, PBMCs were isolated via density gradient centrifugation with Lymphoprep density gradient media ([…] Technologies) and SepMate-50 tubes ([…] Technologies). Samples were centrifuged at 1000 g for 15 minutes. After centrifugation, the upper layers were collected by pouring into a new tube, diluted with PBS, and centrifuged at 450×g for 5 minutes. To lyse red blood cells, cell pellets were resuspended with 10 mL Ammonium-Chloride-Potassium (ACK) Lysis Buffer and incubated for 8 minutes at room temperature. After lysis, cells were washed with PBS and passed through two 70 μm cell strainers. Viable cell counts were determined with a Vi-CELL cell counter (Beckman Coulter). […]
Cell culture supernatants were collected 15-18 hours after stimulation and stored at −80° C. Cytokines in cell culture supernatants were detected with the BD OptEIA human TNF ELISA Set (BD Biosciences), and either Invitrogen IFN alpha Human Matched Antibody Pair kit (Thermo Fisher Scientific) or Human IFN Alpha Multi-Subtype ELISA Kit (PBL Assay Science). […]

[1] = Particle size of RNA-poly-L-arginine complexes by Dynamic Light Scattering; settings: 10 minute incubation (FIG. 9)
Description: Particle sizes were determined by Dynamic Light Scattering (Wyatt Technology). Samples were placed in multiple wells in a 384-well plate and each well was measured ten times for 5 seconds. Z-averages were reported.

TLR7 = target: T1, TLR7 (Homo sapiens, UniProt Q9NYK1); experiment: PBMC stimulation with p-L-arginine-complexed RNA ligands, IFN-α ELISA; assay type: cell-based; settings: human PBMCs; for TLR7 selectivity (IFN-α versus TNF-α secretion): p-L-arginine delivery (FIG. 7); for IFN-α secretion (TLR7 activity): p-L-arginine delivery, 16 hours, ELISA (FIG. 7)
T1 construct: Peripheral blood mononuclear cells (PBMCs) were obtained from buffy coats from healthy adult donors; endogenous in cells; host or cells: primary human PBMCs from healthy donor buffy coats (TLR7 expressed by pDCs)
T1 sequence (Q9NYK1 27-1049): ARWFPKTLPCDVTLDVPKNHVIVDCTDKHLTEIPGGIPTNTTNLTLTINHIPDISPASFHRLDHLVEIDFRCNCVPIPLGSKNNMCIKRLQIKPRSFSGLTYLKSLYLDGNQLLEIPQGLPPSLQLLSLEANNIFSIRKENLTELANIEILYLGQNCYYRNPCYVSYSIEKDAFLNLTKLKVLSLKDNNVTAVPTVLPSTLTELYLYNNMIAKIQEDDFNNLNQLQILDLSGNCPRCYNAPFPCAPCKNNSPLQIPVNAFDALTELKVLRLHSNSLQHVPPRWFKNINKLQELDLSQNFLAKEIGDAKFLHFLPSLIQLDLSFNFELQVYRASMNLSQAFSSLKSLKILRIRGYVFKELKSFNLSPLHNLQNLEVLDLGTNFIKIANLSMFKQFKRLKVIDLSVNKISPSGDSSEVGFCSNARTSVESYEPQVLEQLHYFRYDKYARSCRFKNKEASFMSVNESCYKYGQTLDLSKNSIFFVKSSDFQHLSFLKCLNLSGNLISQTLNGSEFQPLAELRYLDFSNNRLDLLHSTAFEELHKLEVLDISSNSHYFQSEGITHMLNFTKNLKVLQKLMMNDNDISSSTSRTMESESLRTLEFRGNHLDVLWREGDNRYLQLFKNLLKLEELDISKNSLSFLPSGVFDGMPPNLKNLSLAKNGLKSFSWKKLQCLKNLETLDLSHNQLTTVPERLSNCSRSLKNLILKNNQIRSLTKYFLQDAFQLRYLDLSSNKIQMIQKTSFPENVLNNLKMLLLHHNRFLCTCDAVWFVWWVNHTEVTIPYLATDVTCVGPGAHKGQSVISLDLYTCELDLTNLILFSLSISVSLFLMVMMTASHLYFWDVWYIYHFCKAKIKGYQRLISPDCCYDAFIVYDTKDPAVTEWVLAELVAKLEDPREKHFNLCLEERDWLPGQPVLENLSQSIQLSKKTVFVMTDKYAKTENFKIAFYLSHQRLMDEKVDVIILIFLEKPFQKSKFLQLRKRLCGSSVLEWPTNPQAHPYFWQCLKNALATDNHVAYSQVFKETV
Description: (§1) Peripheral blood mononuclear cells (PBMCs) were obtained from buffy coats from healthy adult donors. Buffy coat samples were first diluted with an equal volume of phosphate-buffered saline (PBS). Next, PBMCs were isolated via density gradient centrifugation with Lymphoprep density gradient media ([…] Technologies) and SepMate-50 tubes ([…] Technologies). Samples were centrifuged at 1000 g for 15 minutes. After centrifugation, the upper layers were collected by pouring into a new tube, diluted with PBS, and centrifuged at 450×g for 5 minutes. To lyse red blood cells, cell pellets were resuspended with 10 mL Ammonium-Chloride-Potassium (ACK) Lysis Buffer and incubated for 8 minutes at room temperature. After lysis, cells were washed with PBS and passed through two 70 μm cell strainers. Viable cell counts were determined with a Vi-CELL cell counter (Beckman Coulter). […] Guanosine was added between about 20 and about 30 minutes before the addition of poly-[…])-complexed RNA. […] After mixing by pipetting up and down, the reaction was incubated for 10 minutes, pipetted up and down again, and then added to the cells. In some experiments, RNA ligands were used at a final concentration of 0.6 μg/ml. Where indicated as “+2'3' cGMP”, 2'3' cyclic GMP purchased from eMolecules was complexed together with the RNA ligands. The final concentration of 2'3' cyclic GMP was 5 μg/ml. p-L-arginine was adjusted accordingly to keep the mass ratio of nucleic acid:p-L-arginine constant. Cell culture supernatants were collected 15-18 hours after stimulation and stored at -80° C. Cytokines in cell culture supernatants were detected with the BD OptEIA human TNF ELISA Set (BD Biosciences), and either Invitrogen IFN alpha Human Matched Antibody Pair kit (Thermo Fisher Scientific) or Human IFN Alpha Multi-Subtype ELISA Kit (PBL Assay Science). To test the effects of the RNA ligands described in Example 1 on TLR7 and TLR8 activation, PBMCs were stimulated with the RNA ligands using p-L-arginine complex delivery, delivery with DOTAP, or delivery without a carrier. Activity of TLR7 and TLR8 was assessed based on measurements of IFN-α or TNF-α by enzyme-linked immunosorbent assays (ELISA). In this setting, as depicted in FIG. 6, IFN-α induced by small RNAs is derived from TLR7 expressed by pDCs, or from RIG-I expressed by monocytes. In contrast, TNF-α secretion is derived from monocytes and serves as an indication of TLR8 activation. As shown in this figure, the p-L-arginine delivery restricts most of the activation to TLRs. First, the effects of the RNA ligands on TLR7 and TLR8 activation using p-L-arginine complex delivery were tested.

TLR8 [2] = target: T2, TLR8 (Homo sapiens, UniProt Q9NR97); experiment: PBMC stimulation with p-L-arginine-complexed RNA ligands, TNF-α ELISA; assay type: cell-based; settings: human PBMCs, p-L-arginine delivery, 16 hours, ELISA (FIG. 7)
T2 construct: Peripheral blood mononuclear cells (PBMCs) were obtained from buffy coats from healthy adult donors; endogenous in cells; host or cells: primary human PBMCs from healthy donor buffy coats (TLR8 in monocytes)
T2 sequence (Q9NR97 27-1041): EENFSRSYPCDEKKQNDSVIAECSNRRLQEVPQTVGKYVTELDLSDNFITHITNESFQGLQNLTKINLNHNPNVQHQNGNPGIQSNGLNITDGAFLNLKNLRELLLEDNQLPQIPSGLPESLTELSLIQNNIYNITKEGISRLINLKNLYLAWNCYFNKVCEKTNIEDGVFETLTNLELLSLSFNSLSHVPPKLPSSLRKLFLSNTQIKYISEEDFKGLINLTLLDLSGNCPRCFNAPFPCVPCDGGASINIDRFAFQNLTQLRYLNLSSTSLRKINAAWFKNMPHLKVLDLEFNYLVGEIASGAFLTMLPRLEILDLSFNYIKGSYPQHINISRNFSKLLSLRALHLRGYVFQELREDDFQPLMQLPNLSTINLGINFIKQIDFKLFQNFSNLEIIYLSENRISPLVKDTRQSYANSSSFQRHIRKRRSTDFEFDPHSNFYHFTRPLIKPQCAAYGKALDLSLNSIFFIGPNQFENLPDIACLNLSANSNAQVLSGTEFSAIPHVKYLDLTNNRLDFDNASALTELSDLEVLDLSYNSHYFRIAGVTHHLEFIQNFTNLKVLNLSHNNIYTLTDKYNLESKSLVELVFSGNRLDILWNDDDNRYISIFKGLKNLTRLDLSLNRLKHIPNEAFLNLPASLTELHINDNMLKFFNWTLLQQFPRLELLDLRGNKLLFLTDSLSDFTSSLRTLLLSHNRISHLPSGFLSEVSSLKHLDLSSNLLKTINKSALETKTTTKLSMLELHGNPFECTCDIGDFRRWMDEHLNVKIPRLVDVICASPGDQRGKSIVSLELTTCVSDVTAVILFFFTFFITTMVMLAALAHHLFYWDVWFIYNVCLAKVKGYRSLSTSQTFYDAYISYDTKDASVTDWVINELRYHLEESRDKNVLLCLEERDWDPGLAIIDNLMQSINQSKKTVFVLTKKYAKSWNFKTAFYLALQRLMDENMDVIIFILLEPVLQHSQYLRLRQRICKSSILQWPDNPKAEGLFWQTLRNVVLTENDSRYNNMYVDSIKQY
Description: as §1

TLR8 [3] = target: T2, TLR8; experiment: PBMC stimulation with DOTAP-complexed RNA ligands, TNF-α ELISA; assay type: cell-based; settings: human PBMCs, DOTAP delivery, 0.6 μg/ml and 2 μg/ml, 16 hours (FIGS. 10A-10B)

Substance | IFN-α secretion after pDC depletion (pDC-depleted PBMCs) | Particle size (diameter) of RNA-poly-L-arginine complexes [1] | TLR7 selectivity (IFN-α versus TNF-α secretion) (TLR7) | IFN-α secretion (TLR7 activity) (TLR7) | TNF-α secretion (TLR8 activity) (TLR8 [2]) | TNF-α secretion (TLR8 activity) (TLR8 [3])
GGGACGCUGACCCAGAAGAUCACUAGAAAUAGUAGAUCUUCUGGGUCAGCGUCCC (GGGACGCUGACCCAGAAGAUCACUAGAAAUAGUAGAUCUUCUGGGUCAGCGUCCC; RNA, phosphodiester; in vitro transcribed, further chemistry not given here) [IVT4, in vitro transcribed control, RIG-I ligand 3P-RNA] | maintained after pDC depletion |  |  |  |  | 
C*C*G*A*G*C*C*G*C*U*U*U*U*C*C*C (CCGAGCCGCUUUUCCC; all phosphorothioate, sugars by position not given here) [ORN7013, reference compound] |  | behaved similarly | limited TLR7 selectivity; also recorded: less TLR7-selective | limited TLR7 selectivity and activity; also recorded: less TLR7-selective and active |  | 
C*C*G*A*G*C*C*G*C*fU-U*fU-U*C*C*C (rC*rC*rG*rA*rG*rC*rC*rG*rC*fUrU*fUrU*rC*rC*rC) [ORN7015, 2′-fluoro modified version of ORN7013] |  | behaved similarly | moderately selective | moderately selective and active |  | 
C-G-G-mC-U-C-G-G-C-A-G-A-A-G-C-C-G-G-G-C-C (rCrGrGmCrUrCrGrGrCrArGrArArGrCrCrGrGrGrCrC; hairpin) [ORN70230me, 2′O-methyl-C-modified ORN7023] |  | behaved similarly | maintained TLR7 selectivity; also recorded: TLR7-selective | further increasing the activity; also recorded: highly active |  | 
C*C*U*U*C*U*U*C*U*U*C*U*U*C*U*U*C*U*U*C (rC*rC*rU*rU*rC*rU*rU*rC*rU*rU*rC*rU*rU*rC*rU*rU*rC*rU*rU*rC) [ORN7012] |  | behaved similarly |  |  | TLR8-active | further increased TLR8 activation
C*C*G*A*G*C*C*G*C*mU-U*fU-U*C*C*C (rC*rC*rG*rA*rG*rC*rC*rG*rC*mUrU*fUrU*rC*rC*rC) [ORN7016, 2′-fluoro- and 2′O-methyl-modified version of ORN7013] |  | behaved similarly | TLR7-selective | weakly active |  | 
